We go through eleven compounds from article PMC5071162 (ACS chemical neuroscience, 2016).

One series has as its system P-glycoprotein. The note with it: reported; cited from earlier work.
A further series deals with human GPR88 (Homo sapiens, UniProt Q9GZN0). The experiment in a line: Lance cAMP assay using stable PPLS-HA-GPR88 CHO cells. The format is cell-based. To be noted: for agonist activity in words: qualitative SAR statement, Lance cAMP assay. Background: cAMP levels reflect the balance of adenylyl cyclase and phosphodiesterase activity.
Chain of human GPR88 (Q9GZN0 whole entry): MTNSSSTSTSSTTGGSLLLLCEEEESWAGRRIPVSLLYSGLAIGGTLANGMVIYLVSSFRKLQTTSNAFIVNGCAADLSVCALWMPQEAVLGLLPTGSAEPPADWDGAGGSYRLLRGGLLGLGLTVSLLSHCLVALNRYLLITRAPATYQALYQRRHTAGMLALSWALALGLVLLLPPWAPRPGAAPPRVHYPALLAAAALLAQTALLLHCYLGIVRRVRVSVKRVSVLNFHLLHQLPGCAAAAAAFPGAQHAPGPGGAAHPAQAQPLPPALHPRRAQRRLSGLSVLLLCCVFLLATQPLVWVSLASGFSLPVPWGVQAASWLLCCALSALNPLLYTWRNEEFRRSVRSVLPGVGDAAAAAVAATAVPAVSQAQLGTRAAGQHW
The subject of another series is GPR88. To be noted: HTRF cAMP assay; ref 13 (Bi et al.); cited from earlier work. A general note: In TR-FRET formats the signal depends on donor and acceptor labels being close together.

As to `CCCc1ccc(-c2ccc(N(C[C@@H](N)[C@@H](C)CC)C(=O)[C@@H]3C[C@H]3c3ccccn3)cc2)cc1` (relative stereo) [compound 1, (1R*,2R*)-2-(pyridin-2-yl)-cyclopropanecarboxylic acid ((2S,3S)-2-amino-3-methylpentyl)-(4′-propylbiphenyl-4-yl)-amide], the P-glycoprotein substrate entry in the series on P-glycoprotein was “P-glycoprotein substrate”.

`CC[C@H](C)[C@H](N)CN(C(=O)[C@@H]1C[C@H]1c1ccccn1)c1ccc(-c2ccc(C(N)=O)cc2)cc1` (relative stereo) [5z, (1R*,2R*)-2-(Pyridin-2-yl)cyclopropanecarboxylic Acid [(2S,3S)-2-Amino-3-methylpentyl]-(4′-carbamoylbiphenyl-4-yl)amide]: on human GPR88, the “agonist activity in words” value was “least activity in the series”.

For orientation: EC50 means the concentration that produces a half-maximal response. Consider `CC[C@H](C)[C@H](N)CN(C(=O)[C@@H]1C[C@H]1c1ccccn1)c1ccc(-c2ccc(C3CCCCC3)cc2)cc1` (relative stereo) [5h, (1R*,2R*)-2-(Pyridin-2-yl)cyclopropanecarboxylic Acid [(2S,3S)-2-Amino-3-methylpentyl]-(4′-cyclohexylbiphenyl-4-yl)amide], for which the EC50 on human GPR88 (EC50) was 176 nM; on human GPR88 (pEC50) it was 174 nM.

As for `CCOc1ccc(-c2ccc(N(C[C@@H](N)[C@@H](C)CC)C(=O)[C@@H]3C[C@H]3c3ccccn3)cc2)cc1` (relative stereo) [5l, (1R*,2R*)-2-(Pyridin-2-yl)cyclopropanecarboxylic Acid [(2S,3S)-2-Amino-3-methylpentyl]-(4′-ethoxybiphenyl-4-yl)amide], the EC50 at human GPR88 (EC50) and at human GPR88 (EC50 (nM)) was 82 nM each time.

As to `CC[C@H](C)[C@H](N)CN(C(=O)[C@@H]1C[C@H]1c1ccccn1)c1ccc(-c2ccc(N)cc2)cc1` (relative stereo) [5w, (1R*,2R*)-2-(Pyridin-2-yl)cyclopropanecarboxylic Acid [(2S,3S)-2-Amino-3-methylpentyl]-(4′-aminobiphenyl-4-yl)amide], a half-maximal effect on human GPR88 (EC50) (EC50) was put at 1120 nM. Besides, at human GPR88, the “agonist activity in words” value is “significant decrease in activity”.

On to `CC[C@H](C)[C@H](N)CN(C(=O)[C@@H]1C[C@H]1c1ccccn1)c1ccc(-c2ccc(C)cc2)cc1` (relative stereo) [5a, (1R*,2R*)-2-(Pyridin-2-yl)cyclopropanecarboxylic Acid [(2S,3S)-2-Amino-3-methylpentyl]-(4′-methylbiphenyl-4-yl)amide], for which the EC50 at human GPR88 (EC50) and on human GPR88 (EC50 (nM)) was 104 nM in each case.

At human GPR88 (EC50), `CC[C@H](C)[C@H](N)CN(C(=O)[C@@H]1C[C@H]1c1ccccn1)c1ccc(-c2ccc(C#N)cc2)cc1` (relative stereo) [5r, (1R*,2R*)-2-(Pyridin-2-yl)cyclopropanecarboxylic Acid [(2S,3S)-2-Amino-3-methylpentyl]-(4′-cyanobiphenyl-4-yl)amide] gave a 50% effective concentration (EC50) of 197 nM.

`CCCc1ccc(-c2ccc(N(C[C@@H](N)[C@@H](C)CC)C(=O)[C@@H]3C[C@H]3c3ccccn3)cc2)cc1` [compound 2]: the EC50 with GPR88 was […].

On human GPR88 (EC50), `CC[C@H](C)[C@H](N)CN(C(=O)[C@@H]1C[C@H]1c1ccccn1)c1ccc(-c2ccc(C(C)=O)cc2)cc1` (relative stereo) [5t, (1R*,2R*)-2-(Pyridin-2-yl)cyclopropanecarboxylic Acid [(2S,3S)-2-Amino-3-methylpentyl]-(4′-acetylbiphenyl-4-yl)amide] gave a concentration for a half-maximal effect (EC50) of 351 nM.

On to `CC[C@H](C)[C@H](N)CN(C(=O)[C@@H]1C[C@H]1c1ccccn1)c1ccc(-c2ccc(C(=O)N(C)C)cc2)cc1` (relative stereo) [5aa, (1R*,2R*)-2-(Pyridin-2-yl)cyclopropanecarboxylic Acid [(2S,3S)-2-Amino-3-methylpentyl]-[4′-(dimethylcarbamoyl)biphenyl-4-yl]-amide], for which the EC50 on human GPR88 (EC50) was 3320 nM. Moreover, at human GPR88, the “agonist activity in words” value was “least activity in the series”.

Regarding `CC[C@H](C)[C@H](N)CN(C(=O)[C@@H]1C[C@H]1c1ccccn1)c1ccc(-c2ccc(O)cc2)cc1` (relative stereo) [5v, (1R*,2R*)-2-(Pyridin-2-yl)cyclopropanecarboxylic Acid [(2S,3S)-2-Amino-3-methylpentyl]-(4′-hydroxybiphenyl-4-yl)amide], on human GPR88 (EC50), the 50% effective concentration (EC50) was 2860 nM. Besides, at human GPR88, the “agonist activity in words” value is reported as “significant decrease in activity”.
